Assay results published in patent US6403632B1, “Lactam metalloprotease inhibitors” (priority 2000, dated 2002).

Tested on: cartilage degradation
Assay: Acute Cartilage Degradation Rat Model
Format: in vivo
Conditions: rats
Text: Acute Cartilage Degradation Rat Model A novel in vivo model of acute cartilage degradation in rats has been characterized as a method to determine the proteoglycan content in the synovial fluid after the induction of cartilage degradation.

COc1ccc2c(c1)c(CC(=O)O)c(C)n2C(=O)c1ccc(Cl)cc1 [Indomethacin]
inhibition of cartilage degradation, as measured by increased proteoglycan content in the synovial fluid: inactive
